Results taken from US12637438B2, “Protoporphyrinogen oxidase inhibitors” (Enko Chem, Inc., priority 2021, dated 2026).

Tested on: PPO dG210 mutant Tall Waterhemp (Amaranthus tuberculatus)
Assay type: in vivo
Conditions: relative to Flumioxazin, Sulfentrazone, and Pyroxasulfone

C#CCN1C(=O)C(F)(F)Oc2cc(F)c(-c3c(F)c(F)c(F)c(F)c3F)cc21 [Compound 2, 2,2,7-trifluoro-6-(perfluorophenyl)-4-(prop-2-yn-1-yl)-2H-benzo[b][1,4]oxazin-3(4H)-one]
resistant weed control, comparison in words: more effective at resistant weed control than the other commercially available herbicides
